# Assay results reported in patent publication US20220291237A1 (priority 2021, published 2022).
# “Also recorded” adds a separate entry of the source. Read-outs that look alike come from different tables or passages of the source.
# B1: MIG: recombinant mouse MIG (R&D systems, catalog number 492-MM) (protein, UniProt Q07325 23-125, looked up)
# C-X-C motif chemokine 9: TPVVRKGRCSCISTNQGTIHLQSLKDLKQFAPSPSCEKIEIIATLKNGVQTCLNPDSADVKELIKKWEKQVSQKKKQKNGKKHQKKKVLKVRKSQRSRQKKTT
# Assays:
# TNFSF10 = test system: TNFSF10; design: species or system human
# CCL11 = assay: Drugs that upregulate or downregulate iAge marker (Table 9); design: species or system human; conditions: GENE CCL11; beneficial (lowers) or detrimental (raises) to iAge
# CXCL1 = test system: CXCL1; design: species or system human
# IFNG = test system: IFNG; design: species or system human
# MIG = test system: MIG; design: species or system human
# aromatase = aromatase (Homo sapiens, UniProt P11511); conditions: in vivo; cited from earlier work
# Mouse thoracic aortas = assay: Acetylcholine relaxation of mouse thoracic aortic rings on wire myograph after MIG; conditions: increasing concentrations of recombinant mouse MIG, precontracted with U46619
# Description: Mouse thoracic aortas were carefully dissected, and vessels were cut into small rings and mounted on an isometric wire myograph chambers (Danish Myo Technology) and subjected to a normalization protocol. Following normalization, the vessels were incubated with either PBS or different concentrations of recombinant mouse MIG (R&D systems, catalog number 492-MM). A concentration-dependent contraction curve was created by accumulative application of the prostaglandin agonist U46619. Subsequently, concentration-dependent relaxation curves of Acetylcholine were conducted on these vessels and percent relaxation calculated for each dose.
# [1] = GENE TNFSF10, beneficial (lowers) or detrimental (raises) to iAge
# [2] = GENE CXCL1, beneficial (lowers) or detrimental (raises) to iAge
# [3] = GENE IFNG, beneficial (lowers) or detrimental (raises) to iAge
# [4] = GENE CXCL9 (MIG), beneficial (lowers) or detrimental (raises) to iAge
# Chain of TNFSF10 (P50591 whole entry): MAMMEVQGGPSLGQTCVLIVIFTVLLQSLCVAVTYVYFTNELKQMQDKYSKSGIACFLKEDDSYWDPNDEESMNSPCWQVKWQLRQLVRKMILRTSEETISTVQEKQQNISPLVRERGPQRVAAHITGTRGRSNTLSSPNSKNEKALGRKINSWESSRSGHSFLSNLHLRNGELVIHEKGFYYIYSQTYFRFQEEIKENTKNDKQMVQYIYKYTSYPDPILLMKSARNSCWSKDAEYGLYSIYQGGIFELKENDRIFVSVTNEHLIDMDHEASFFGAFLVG
# Chain of aromatase (P11511 whole entry): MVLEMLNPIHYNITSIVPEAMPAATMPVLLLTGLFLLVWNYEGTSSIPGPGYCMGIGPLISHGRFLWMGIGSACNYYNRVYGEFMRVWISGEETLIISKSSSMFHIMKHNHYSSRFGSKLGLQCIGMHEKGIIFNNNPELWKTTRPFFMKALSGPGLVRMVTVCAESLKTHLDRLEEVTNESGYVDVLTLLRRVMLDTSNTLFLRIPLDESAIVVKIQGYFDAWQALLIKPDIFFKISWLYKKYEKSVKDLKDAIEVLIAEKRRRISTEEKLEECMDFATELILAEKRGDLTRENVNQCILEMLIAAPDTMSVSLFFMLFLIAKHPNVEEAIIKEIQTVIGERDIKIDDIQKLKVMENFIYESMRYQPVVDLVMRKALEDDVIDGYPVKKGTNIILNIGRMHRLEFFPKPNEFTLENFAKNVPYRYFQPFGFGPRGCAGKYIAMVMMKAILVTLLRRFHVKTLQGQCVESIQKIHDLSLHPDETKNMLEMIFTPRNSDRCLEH
molecule,measurement,setting,value
[Cr] [Chromium],EFFECT,TNFSF10; [1],Detrimental
C=CC[C@@H]1/C=C(\C)C[C@H](C)C[C@H](OC)[C@H]2O[C@@](O)(C(=O)C(=O)N3CCCC[C@H]3C(=O)O[C@H](/C(C)=C/[C@@H]3CC[C@@H](O)[C@H](OC)C3)[C@H](C)[C@@H](O)CC1=O)[C@H](C)C[C@@H]2OC [Tacrolimus],EFFECT,CCL11,Beneficial
"CC(=O)N[C@@H](CS)C(=O)O [Acetylcysteine, reference compound]",EFFECT,TNFSF10; [1],Detrimental
"O=C(CCCCCCC(=O)Nc1ccccc1)NO [Vorinostat, reference compound]",EFFECT,TNFSF10; [1],Beneficial
Oc1cccc2cccnc12 [Oxyquinoline],EFFECT,TNFSF10,Beneficial
CC#C[C@]1(O)CC[C@H]2[C@@H]3CCC4=CC(=O)CCC4=C3[C@@H](c3ccc(N(C)C)cc3)C[C@@]21C [Mifepristone],EFFECT,CXCL1; [2],Detrimental
"CN(Cc1cnc2nc(N)nc(N)c2n1)c1ccc(C(=O)N[C@@H](CCC(=O)O)C(=O)O)cc1 [methotrexate, Methotrexate, reference compound]",EFFECT,CXCL1; [2],Detrimental; also recorded: Beneficial
same,EFFECT,CCL11,Beneficial
same,EFFECT,TNFSF10; [1],Beneficial
same,EFFECT,IFNG; [3],Detrimental
"CC(=O)CCCCn1c(=O)c2c(ncn2C)n(C)c1=O [Pentoxifylline, reference compound]",EFFECT,TNFSF10; [1],Beneficial
"O=c1[nH]cc(F)c(=O)[nH]1 [Fluorouracil, reference compound]",EFFECT,TNFSF10; [1],Beneficial
"NC(=O)c1ncn([C@@H]2O[C@H](CO)[C@@H](O)[C@H]2O)n1 [Ribavirin, reference compound]",EFFECT,IFNG; [3],Detrimental
Vitamin E,EFFECT,TNFSF10; [1],Detrimental
O=C([O-])CC([S-])C(=O)[O-].[Au+].[Na+].[Na+] (stereo not drawn) [Sodium aurothiomalate],EFFECT,CXCL1; [2],Detrimental
CN1C(C(=O)Nc2ccccn2)=C(O)c2ccccc2S1(=O)=O [Piroxicam],EFFECT,CXCL1; [2],Detrimental
CN/C(=N/CCSCc1nc[nH]c1C)NC#N [Cimetidine],EFFECT,IFNG,Beneficial
O=S(=O)([O-])[O-].[Zn+2] [Zinc sulfate],EFFECT,IFNG,Beneficial
"CC1=C(/C=C/C(C)=C\C=C\C(C)=C\C(=O)O)C(C)(C)CCC1 [Alitretinoin, reference compound]",EFFECT,CXCL1; [2],Detrimental
same,EFFECT,TNFSF10; [1],Beneficial
same,EFFECT,IFNG; [3],Detrimental
CC1=C(/C=C/C(C)=C/C=C/C(C)=C/C=C/C=C(C)/C=C/C=C(C)/C=C/C2=C(C)CCCC2(C)C)C(C)(C)CCC1 [Beta carotene],EFFECT,MIG,Detrimental
same,EFFECT,TNFSF10,Beneficial
N.N.[Cl][Pt][Cl] [Cisplatin],EFFECT,TNFSF10; [1],Beneficial
"CC(C)C[C@H](NC(=O)[C@H](Cc1ccccc1)NC(=O)c1cnccn1)B(O)O [Bortezomib, reference compound]",EFFECT,CXCL1; [2],Beneficial
same,EFFECT,TNFSF10; [1],Detrimental
"NCCc1c[nH]cn1 [Histamine, reference compound]",EFFECT,IFNG,Detrimental
C=CCc1ccc(O)c(OC)c1 [Eugenol],EFFECT,CXCL1; [2],Beneficial
"Oc1ccc(/C=C/c2cc(O)cc(O)c2)cc1 [Resveratrol, 3,5,4′-trihydroxy-trans-stilbene]",EFFECT,CXCL1; [2],Detrimental
same,EFFECT,CCL11,Beneficial
same,EFFECT,IFNG; [3],Detrimental
COc1cccc2c1C(=O)c1c(O)c3c(c(O)c1C2=O)C[C@@](O)(C(=O)CO)C[C@@H]3O[C@H]1C[C@H](N)[C@H](O)[C@H](C)O1 [Doxorubicin],EFFECT,TNFSF10; [1],Beneficial
O.O.O.O.O.O.O.O.O.O=C([O-])[C@@H]1[O][Sb]2([O-])([O][Sb]34([OH])[O][C@H]([C@H](O)CO)[C@H]([O]3)[C@H](C(=O)[O-])[O]4)[O][C@H]([C@H](O)CO)[C@@H]1[O]2.[Na+].[Na+].[Na+] [Sodium stibogluconate],EFFECT,IFNG; [3],Detrimental
[Ag] [Silver],EFFECT,TNFSF10; [1],Detrimental
"Nc1ncn([C@H]2C[C@H](O)[C@@H](CO)O2)c(=O)n1 [Decitabine, 5-aza-2′-deoxycytidine, reference compound]",EFFECT,TNFSF10; [1],Beneficial
CC[C@]1(O)C[C@H]2CN(CCc3c([nH]c4ccccc34)[C@@](C(=O)OC)(c3cc4c(cc3OC)N(C=O)[C@H]3[C@@](O)(C(=O)OC)[C@H](OC(C)=O)[C@]5(CC)C=CCN6CC[C@]43[C@@H]65)C2)C1 [Vincristine],EFFECT,MIG; [4],Detrimental
same,EFFECT,TNFSF10; [1],Beneficial
same,EFFECT,IFNG; [3],Beneficial
Nc1ccn([C@@H]2O[C@H](CO)[C@@H](O)C2(F)F)c(=O)n1 [Gemcitabine],EFFECT,CXCL1; [2],Beneficial
[Zn] [Zinc],EFFECT,CCL11,Detrimental
same,EFFECT,IFNG; [3],Beneficial
CC(=O)Nc1ccc(O)cc1 [Acetaminophen],EFFECT,TNFSF10,Detrimental
[Fe] [Iron],EFFECT,TNFSF10; [1],Beneficial
"CCCCCc1cc(O)c2c(c1)OC(C)(C)[C@@H]1CCC(C)=C[C@@H]21 [Dronabinol, reference compound]",EFFECT,IFNG; [3],Detrimental
CC1=C(/C=C/C(C)=C/C=C/C(C)=C\C(=O)O)C(C)(C)CCC1 [Isotretinoin],EFFECT,CXCL1; [2],Detrimental
same,EFFECT,TNFSF10; [1],Beneficial
Cn1c(=O)c2[nH]cnc2n(C)c1=O [Theophylline],EFFECT,IFNG,Detrimental
[Se] [Selenium],EFFECT,CXCL1; [2],Beneficial
same,EFFECT,MIG; [4],Beneficial
same,EFFECT,TNFSF10; [1],Detrimental
Arsenic trioxide,EFFECT,MIG; [4],Beneficial
same,EFFECT,TNFSF10; [1],Detrimental; also recorded: Beneficial
Nc1ccn([C@@H]2O[C@H](CO)[C@@H](O)[C@@H]2O)c(=O)n1 [Cytarabine],EFFECT,TNFSF10; [1],Beneficial
N#Cc1ccc(C(c2ccc(C#N)cc2)n2cncn2)cc1 [Letrozole],reduction of estrogen levels,aromatase,98%
C[C@]12C=CC(=O)C=C1CC[C@@H]1[C@@H]2[C@@H](O)C[C@@]2(C)[C@H]1CC[C@]2(O)C(=O)CO [Prednisolone],EFFECT,CXCL1,Detrimental
[Gd] [Gadolinium],EFFECT,IFNG; [3],Beneficial
"CC1=C(/C=C/C(C)=C/C=C/C(C)=C/C(=O)O)C(C)(C)CCC1 [Tretinoin, reference compound]",EFFECT,CXCL1; [2],Detrimental
same,EFFECT,TNFSF10; [1],Beneficial
same,EFFECT,IFNG; [3],Detrimental
"COc1cc(CNC(=O)CCCC/C=C/C(C)C)ccc1O [Capsaicin, reference compound]",EFFECT,TNFSF10; [1],Beneficial
CC(=O)[C@H]1CC[C@H]2[C@@H]3CCC4=CC(=O)CC[C@]4(C)[C@H]3CC[C@]12C [Progesterone],EFFECT,CXCL1; [2],Detrimental
same,EFFECT,MIG; [4],Detrimental
same,EFFECT,TNFSF10; [1],Detrimental
O=O [Oxygen],EFFECT,TNFSF10,Beneficial
same,EFFECT,IFNG,Beneficial
B1,effect on vasorelaxation to Acetylcholine,Mouse thoracic aortas,impairs vascular function
